Measured values from ChEMBL document CHEMBL1201862, “PubChem BioAssay data set” (2004).
Values joined by “and” are separate entries in the source; they are usually repeats but may differ in a detail not shown here. Equal values may be shown once.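 48-hour exposure; five concentrations; linearly interpolated endpoints. GI50: concentration for 50% inhibition of growth.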 Active and inactive are the calls of the source. Cut-off read from the data, not from the text of the source: active = GI50 up to about 1.1 µM and inactive = higher.

Legend:
Test in all cases: inhibition of tumour cell growth, NCI panel, 48 h
786-0 = system: 786-0
A498 = system: A498
A549 = system: A549
ACHN = system: ACHN
BT-549 = system: BT-549
CAKI-1 = system: CAKI-1
CCRF-CEM = system: CCRF-CEM
COLO 205 = system: COLO 205
DU-145 = system: DU-145
EKVX = system: EKVX
HCC 2998 = system: HCC 2998
HCT-116 = system: HCT-116
HCT-15 = system: HCT-15
HL-60 = system: HL-60
HOP-62 = system: HOP-62
HOP-92 = system: HOP-92
HT-29 = system: HT-29
Hs-578T = system: Hs-578T
IGROV-1 = system: IGROV-1
K562 = system: K562
KM12 = system: KM12
LOX IMVI = system: LOX IMVI
M14 = system: M14
MCF7 = system: MCF7
MDA-MB-231 = system: MDA-MB-231
MDA-MB-435 = system: MDA-MB-435
MDA-N = system: MDA-N
MOLT-4 = system: MOLT-4
Malme-3M = system: Malme-3M
NCI-H226 = system: NCI-H226
NCI-H23 = system: NCI-H23
NCI-H460 = system: NCI-H460
NCI-H522 = system: NCI-H522
NCI/ADR-RES = system: NCI/ADR-RES
OVCAR-3 = system: OVCAR-3
OVCAR-4 = system: OVCAR-4
OVCAR-5 = system: OVCAR-5
OVCAR-8 = system: OVCAR-8
PC-3 = system: PC-3
RPMI-8226 = system: RPMI-8226
RXF 393 = system: RXF 393
SF-268 = system: SF-268
SF-295 = system: SF-295
SF-539 = system: SF-539
SK-MEL-28 = system: SK-MEL-28
SK-MEL-5 = system: SK-MEL-5
SK-OV-3 = system: SK-OV-3
SN12C = system: SN12C
SNB-19 = system: SNB-19
SNB-75 = system: SNB-75
SR = system: SR
SW-620 = system: SW-620
T47D = system: T47D
TK-10 = system: TK-10
U-251 = system: U-251
UACC-257 = system: UACC-257
UACC-62 = system: UACC-62
UO-31 = system: UO-31
SK-MEL-2 = system: SK-MEL-2

Cc1cc(S(=O)(=O)N=C2N(Cc3ccccc3)CCN2Cc2ccccc2)c(S)cc1Cl
GI50 (786-0): > 100 µM (inactive) | GI50 (A498): > 100 µM (inactive) | GI50 (A549): > 100 µM (inactive) | GI50 (ACHN): > 10 µM (inactive) | GI50 (BT-549): > 100 µM (inactive) | GI50 (CAKI-1): > 100 µM (inactive) | GI50 (CCRF-CEM): > 100 µM (inactive) | GI50 (COLO 205): > 100 µM (inactive) | GI50 (DU-145): > 100 µM (inactive) | GI50 (EKVX): > 100 µM (inactive) | GI50 (HCC 2998): > 100 µM (inactive) | GI50 (HCT-116): > 100 µM (inactive) | GI50 (HCT-15): > 100 µM | GI50 (HL-60): > 100 µM (inactive) | GI50 (HOP-62): > 100 µM (inactive) | GI50 (HOP-92): > 100 µM (inactive) | GI50 (HT-29): > 100 µM (inactive) | GI50 (Hs-578T): > 100 µM (inactive) | GI50 (IGROV-1): > 100 µM (inactive) | GI50 (K562): > 100 µM (inactive) | GI50 (KM12): > 100 µM (inactive) | GI50 (LOX IMVI): 70.8 µM (inactive) | GI50 (M14): > 100 µM (inactive) | GI50 (MCF7): > 100 µM (inactive) | GI50 (MDA-MB-231): > 100 µM (inactive) | GI50 (MDA-MB-435): > 100 µM (inactive) | GI50 (MDA-N): > 100 µM (inactive) | GI50 (MOLT-4): > 100 µM (inactive) | GI50 (Malme-3M): > 100 µM (inactive) | GI50 (NCI-H226): 85.5 µM (inactive) | GI50 (NCI-H23): > 100 µM (inactive) | GI50 (NCI-H460): 56.1 µM (inactive) | GI50 (NCI-H522): 40.6 µM (inactive) | GI50 (NCI/ADR-RES): > 100 µM (inactive) | GI50 (OVCAR-3): > 100 µM (inactive) | GI50 (OVCAR-4): > 100 µM (inactive) | GI50 (OVCAR-5): > 100 µM (inactive) | GI50 (OVCAR-8): > 100 µM (inactive) | GI50 (PC-3): 27.7 µM (inactive) | GI50 (RPMI-8226): > 100 µM (inactive) | GI50 (RXF 393): 78.3 µM (inactive) | GI50 (SF-268): 36 µM (inactive) | GI50 (SF-295): 48.9 µM (inactive) | GI50 (SF-539): > 100 µM (inactive) | GI50 (SK-MEL-28): > 100 µM (inactive) | GI50 (SK-MEL-5): > 100 µM (inactive) | GI50 (SK-OV-3): > 100 µM (inactive) | GI50 (SN12C): > 100 µM (inactive) | GI50 (SNB-19): > 100 µM (inactive) | GI50 (SNB-75): 69.8 µM (inactive) | GI50 (SR): 95.9 µM (inactive) | GI50 (SW-620): > 100 µM (inactive) | GI50 (T47D): 10.8 µM (inactive) | GI50 (TK-10): > 100 µM (inactive) | GI50 (U-251): 54.8 µM (inactive) | GI50 (UACC-257): > 100 µM (inactive) | GI50 (UACC-62): > 100 µM (inactive) | GI50 (UO-31): 17.7 µM (inactive)

Cc1ccc(/C=C2/N/C(=N\N=C/C(O)C(O)C(O)C(O)CO)NC2=O)cc1 (stereo not drawn)
GI50 (786-0): > 100 µM (inactive) | GI50 (A498): > 100 µM (inactive) | GI50 (A549): > 100 µM (inactive) | GI50 (ACHN): > 100 µM (inactive) | GI50 (BT-549): > 100 µM (inactive) | GI50 (CAKI-1): > 100 µM (inactive) | GI50 (CCRF-CEM): 95.3 µM (inactive) | GI50 (COLO 205): > 100 µM (inactive) | GI50 (DU-145): > 100 µM (inactive) | GI50 (EKVX): > 100 µM (inactive) | GI50 (HCC 2998): > 100 µM (inactive) | GI50 (HCT-116): > 100 µM (inactive) | GI50 (HCT-15): > 100 µM and 69.8 µM | GI50 (HL-60): > 100 µM (inactive) | GI50 (HOP-62): > 100 µM (inactive) | GI50 (HOP-92): > 100 µM (inactive) | GI50 (HT-29): > 100 µM (inactive) | GI50 (Hs-578T): > 100 µM (inactive) | GI50 (IGROV-1): > 100 µM (inactive) | GI50 (KM12): > 100 µM (inactive) | GI50 (LOX IMVI): > 100 µM (inactive) | GI50 (M14): > 100 µM (inactive) | GI50 (MCF7): > 100 µM (inactive) | GI50 (MDA-MB-231): > 100 µM (inactive) | GI50 (MDA-MB-435): > 100 µM (inactive) | GI50 (MDA-N): > 100 µM (inactive) | GI50 (Malme-3M): > 100 µM (inactive) | GI50 (NCI-H226): > 100 µM (inactive) | GI50 (NCI-H23): > 100 µM (inactive) | GI50 (NCI-H460): > 100 µM (inactive) | GI50 (NCI-H522): > 100 µM (inactive) | GI50 (NCI/ADR-RES): > 100 µM (inactive) | GI50 (OVCAR-3): > 100 µM (inactive) | GI50 (OVCAR-5): > 100 µM (inactive) | GI50 (OVCAR-8): > 100 µM (inactive) | GI50 (PC-3): > 100 µM (inactive) | GI50 (RPMI-8226): > 100 µM (inactive) | GI50 (RXF 393): > 100 µM (inactive) | GI50 (SF-268): > 100 µM (inactive) | GI50 (SF-295): > 100 µM (inactive) | GI50 (SF-539): > 100 µM (inactive) | GI50 (SK-MEL-28): > 100 µM (inactive) | GI50 (SK-MEL-2): > 100 µM (inactive) | GI50 (SK-MEL-5): > 100 µM (inactive) | GI50 (SK-OV-3): > 100 µM (inactive) | GI50 (SN12C): > 100 µM (inactive) | GI50 (SNB-19): > 100 µM (inactive) | GI50 (SNB-75): > 100 µM (inactive) | GI50 (SR): > 100 µM (inactive) | GI50 (SW-620): > 100 µM (inactive) | GI50 (T47D): > 100 µM (inactive) and 99.1 µM (inactive) | GI50 (TK-10): > 100 µM (inactive) | GI50 (U-251): > 100 µM (inactive) | GI50 (UACC-257): > 100 µM (inactive) | GI50 (UO-31): > 100 µM (inactive)
